Laboratory results as given in patent US12383526B2, “Optimized sigma-1 agonist method of responder selection and treatment” (ANAVEX LIFE SCIENCES CORP., priority 2018, dated 2025).

Tested on: subjects with mild-to-moderate AD
Test: ADCS-ADL (Activities of Daily Living) change from baseline, 57-week Phase 2a study and 208-week extension study
Assay type: in vivo, human
Design: key to unadjusted change in ADCS-ADL score, Mean ± Std. Dev: change from baseline on ADCS-ADL scale 0–78, higher = greater function
Text: The present study integrates and analyzes data and samples from two consecutive clinical trials: 57-week study and 208-week study. 57-week study was a multicenter Phase 2a clinical trial of the drug ANAVEX2-73 that recruited a sample of 32 subjects with mild-to-moderate AD. It consisted of two parts: Part A was a simple randomized, open-label, two-period, cross-over, adaptive trial lasting up to 5 weeks. Each period involved one specific administration route and two possible dose levels: in one period the oral dose (30 mg or 50 mg) was administrated and in the other period an intravenous (IV) form (3 mg or 5 mg) was administered, making a total of 8 possible dose administration schemes in Part A (details available in FIG. 2A). The two periods were separated by a wash-out period of 12 days where no dose was given.
Part B, following immediately after Part A, was an open-label extension of the oral daily dose for an additional 52 weeks. The primary endpoint of 57-week study was to establish the safety and tolerability of the drug. Secondary endpoints aimed at establishing the relationship between dosing regimen and pharmacodynamics-exploratory efficacy outcomes of cognition and function. Cognition was assessed by the Mini Mental State Examination (MMSE), while functional abilities by the Alzheimer's Disease Co-operative Study—Activities of Daily Living Inventory (ADCS-ADL). Additional cognitive measures included the Cogstate Brief Battery (CBB), and functional measures of Electroencephalography and Event-Related Potential (EEG and ERP). Part B continued an adaptive oral administration scheme. Table 12 summarizes mean oral dose administration during the 57-week study study.
Due to favorable safety and tolerability profile of the 57-week study (Table 2), and in response to requests from patients and caregivers, a 208-week open-label extension study (208-week study) was carried out immediately after completion of 57-week study Part B. 208-week study enrolled the 24 subjects who completed Part B and applied similarly an adaptive daily oral administration scheme. ANAVEX2-73-003 involves continuous evaluation of safety and efficacy as measured by the MMSE and ADCS-ADL. At week 148 (interim time point for analyses), data on the subjects remaining in the study (n=21) was analyzed for efficacy outcomes. This report was drafted using data available at week 148, while ANAVEX2-73-003 is still ongoing.
Exploratory clinical efficacy in this study was defined as change from baseline of each patient's cognitive (MMSE) and functional ability (ADCS-ADL) scores. The MMSE57 is a widely used, validated instrument in clinical AD research, including as a cognitive outcome measure in drug trials. The range of the scale is from 0 to 30, with a higher score indicating higher cognitive function. The ADCS-ADL58 is undertaken in a structured caregiver interview format and assesses performance in activities of daily living of patients with AD. The scale is from 0 to 78, with a higher score indicating greater function. The ADCS-ADL has shown to have good test-retest reliability 59. The MMSE and the ADCS-ADL were assessed during pre-specified clinical site visits across 14 different time points during the 57-week study (Weeks 0 and 5 in Part A; Weeks 17, 31, 41, 53, and 57 in Part B), and 208-week study (Weeks 70, 83, 96, 109, 122, 135, and 148) studies.
Corresponding Delta scores were calculated using the difference between values at each visit and at baseline for each individual patient, with a focus on Week 57. In addition, to lower the impact of noise in MMSE and ADCS-ADL scores, a Slope was estimated using a linear regression across all available time points for each individual patient. The derived scores describe the progression of exploratory efficacy data from baseline at several specific time points (Deltas) and over a set period of time (Slope). […]

## CN(C)CC1CCOC1(c1ccccc1)c1ccccc1.Cl (centres unmarked) [ANAVEX2-73, tetrahydro-N,N-dimethyl-2,2-diphenyl-3-furanmethanamine hydrochloride]
Absence of COMT_L146fs variant & Baseline MMSE ≥20, N 11
  ADCS-ADL Mean Δ at 57 weeks: −0.63 ± 5.33
Absence of COMT_L146fs variant, N 16
  ADCS-ADL Mean Δ at 57 weeks: −2.37 ± 6.96
Absence of SIGMAR1_Q2P variant & Absence of COMT_L145fs variant & Baseline MMSE ≥20, N 10
  ADCS-ADL Mean Δ at 57 weeks: −0.30 ± 5.50
Absence of SIGMAR1_Q2P variant, N 16
  ADCS-ADL Mean Δ at 57 weeks: −3.31 ± 7.64
Absence of SIGNAR1_Q2P variant & Baseline MMSE ≥20, N 11
  ADCS-ADL Mean Δ at 57 weeks: −1.27 ± 6.13
All Patients (N = 21), Week 0
  unadjusted change in ADCS-ADL score, Mean ± Std. Dev: 0 ± 0
All Patients (N = 21), Week 5
  unadjusted change in ADCS-ADL score, Mean ± Std. Dev: −1.65 ± 6.71
All Patients (N = 21), Week 17
  unadjusted change in ADCS-ADL score, Mean ± Std. Dev: −1.33 ± 3.85
All Patients (N = 21), Week 31
  unadjusted change in ADCS-ADL score, Mean ± Std. Dev: −3.60 ± 8.09
All Patients (N = 21), Week 41
  unadjusted change in ADCS-ADL score, Mean ± Std. Dev: −3.95 ± 6.34
All Patients (N = 21), Week 53
  unadjusted change in ADCS-ADL score, Mean ± Std. Dev: −5.29 ± 7.47
All Patients (N = 21), Week 57
  unadjusted change in ADCS-ADL score, Mean ± Std. Dev: −5.24 ± 8.42
All Patients (N = 21), Week 70
  unadjusted change in ADCS-ADL score, Mean ± Std. Dev: −8.81 ± 10.90
All Patients (N = 21), Week 83
  unadjusted change in ADCS-ADL score, Mean ± Std. Dev: −9.38 ± 12.69
All Patients (N = 21), Week 96
  unadjusted change in ADCS-ADL score, Mean ± Std. Dev: −14.52 ± 15.61
All Patients (N = 21), Week 109
  unadjusted change in ADCS-ADL score, Mean ± Std. Dev: −14.25 ± 14.56
All Patients (N = 21), Week 122
  unadjusted change in ADCS-ADL score, Mean ± Std. Dev: −17.84 ± 18.89
All Patients (N = 21), Week 135
  unadjusted change in ADCS-ADL score, Mean ± Std. Dev: −20.29 ± 18.37
All Patients (N = 21), Week 148
  unadjusted change in ADCS-ADL score, Mean ± Std. Dev: −21.16 ± 17.73
All, N 21
  ADCS-ADL Mean Δ at 57 weeks: −5.19 ± 8.46
Baseline MMSE ≥20, N 13
  ADCS-ADL Mean Δ at 57 weeks: −2.00 ± 5.93
Group1 (n 2), Week 0
  unadjusted change in ADCS-ADL score, Mean ± Std. Dev: 0.00 ± 0.00
Group1 (n 2), Week 5
  unadjusted change in ADCS-ADL score, Mean ± Std. Dev: 6.50 ± 9.19
Group1 (n 2), Week 17
  unadjusted change in ADCS-ADL score, Mean ± Std. Dev: 4.50 ± 0.71
Group1 (n 2), Week 31
  unadjusted change in ADCS-ADL score, Mean ± Std. Dev: 6.50 ± 3.54
Group1 (n 2), Week 41
  unadjusted change in ADCS-ADL score, Mean ± Std. Dev: 4.50 ± 0.71
Group1 (n 2), Week 53
  unadjusted change in ADCS-ADL score, Mean ± Std. Dev: 5.00 ± 1.41
Group1 (n 2), Week 57
  unadjusted change in ADCS-ADL score, Mean ± Std. Dev: 6.00 ± 2.83
Group1 (n 2), Week 70
  unadjusted change in ADCS-ADL score, Mean ± Std. Dev: 6.00 ± 2.83
Group1 (n 2), Week 83
  unadjusted change in ADCS-ADL score, Mean ± Std. Dev: 4.50 ± 2.12
Group1 (n 2), Week 96
  unadjusted change in ADCS-ADL score, Mean ± Std. Dev: 5.50 ± 2.12
Group1 (n 2), Week 109
  unadjusted change in ADCS-ADL score, Mean ± Std. Dev: 4.00 ± 0.00
Group1 (n 2), Week 122
  unadjusted change in ADCS-ADL score, Mean ± Std. Dev: 6.00 ± 2.83
Group1 (n 2), Week 135
  unadjusted change in ADCS-ADL score, Mean ± Std. Dev: 6.00 ± 2.83
Group1 (n 2), Week 148
  unadjusted change in ADCS-ADL score, Mean ± Std. Dev: 7.00 ± 4.24
Group2 (n 6), Week 0
  unadjusted change in ADCS-ADL score, Mean ± Std. Dev: 0.00 ± 0.00
Group2 (n 6), Week 5
  unadjusted change in ADCS-ADL score, Mean ± Std. Dev: 0.83 ± 6.59
Group2 (n 6), Week 17
  unadjusted change in ADCS-ADL score, Mean ± Std. Dev: 1.33 ± 2.80
Group2 (n 6), Week 31
  unadjusted change in ADCS-ADL score, Mean ± Std. Dev: 0.33 ± 5.39
Group2 (n 6), Week 41
  unadjusted change in ADCS-ADL score, Mean ± Std. Dev: 0.50 ± 4.09
Group2 (n 6), Week 53
  unadjusted change in ADCS-ADL score, Mean ± Std. Dev: 0.50 ± 4.18
Group2 (n 6), Week 57
  unadjusted change in ADCS-ADL score, Mean ± Std. Dev: 1.83 ± 3.66
Group2 (n 6), Week 70
  unadjusted change in ADCS-ADL score, Mean ± Std. Dev: 0.33 ± 4.93
Group2 (n 6), Week 83
  unadjusted change in ADCS-ADL score, Mean ± Std. Dev: −0.67 ± 5.85
Group2 (n 6), Week 96
  unadjusted change in ADCS-ADL score, Mean ± Std. Dev: −2.50 ± 7.71
Group2 (n 6), Week 109
  unadjusted change in ADCS-ADL score, Mean ± Std. Dev: −3.83 ± 7.96
Group2 (n 6), Week 122
  unadjusted change in ADCS-ADL score, Mean ± Std. Dev: −3.00 ± 6.72
Group2 (n 6), Week 135
  unadjusted change in ADCS-ADL score, Mean ± Std. Dev: −4.17 ± 10.42
Group2 (n 6), Week 148
  unadjusted change in ADCS-ADL score, Mean ± Std. Dev: −8.17 ± 15.96
Group 3 (n 11), Week 0
  unadjusted change in ADCS-ADL score, Mean ± Std. Dev: 0.00 ± 0.00
Group 3 (n 11), Week 5
  unadjusted change in ADCS-ADL score, Mean ± Std. Dev: −0.09 ± 6.32
Group 3 (n 11), Week 17
  unadjusted change in ADCS-ADL score, Mean ± Std. Dev: 0.09 ± 3.45
Group 3 (n 11), Week 31
  unadjusted change in ADCS-ADL score, Mean ± Std. Dev: −1.82 ± 5.71
Group 3 (n 11), Week 41
  unadjusted change in ADCS-ADL score, Mean ± Std. Dev: −2.27 ± 6.40
Group 3 (n 11), Week 53
  unadjusted change in ADCS-ADL score, Mean ± Std. Dev: −1.73 ± 5.61
Group 3 (n 11), Week 57
  unadjusted change in ADCS-ADL score, Mean ± Std. Dev: −1.36 ± 6.09
